Experiments:
[1] = Release of alpha-lipoic acid from the coating on foam pads; format: physicochemical; settings: coating on foam pads (FIG. 4)
Description: Polyurethane open-cell reticulated foam pads were selected as the scaffold and were immersed in a solution containing 1.5 wt % of alpha-lipoic acid and 4.5 wt % 225-bloom beef gelatin (and, where applicable, 0.3% EDTA). Gelatin was used as a biocompatible binding agent with good oxygen barrier and sustained release properties for alpha-lipoic acid as well as for its ability to act as a sacrificial substrate for surrounding gelatinases. Alpha-lipoic acid was pre-dissolved in ethanol and then mixed into the final solution. The foam pads were immersed for a sufficient amount of time to coat the pathways formed within the open-cell reticulated foam as described above with respect to the scaffold. After immersion, the foam pads were withdrawn, compressed to remove excess solution, and dried to a constant weight. In some cases, sodium benzoate was added to the formulation as a preservative. Dried foams comprised, by weight, 2% alpha-lipoic acid, 6% gelatin and, where applicable, 0.4% EDTA.
A National Diagnostics Hydrogen Peroxide Assay Kit was used to evaluate the antioxidant properties of foam pads and the formulated coated foam pads containing alpha-lipoic acid. Foam pads coated only with gelatin were used as controls. FIG. 2 is a graph showing the percentage of hydrogen peroxide reduction due to reaction with alpha-lipoic acid. […]

[2] = target: T1, MMP-9 (Homo sapiens, UniProt P14780); test: MMP-9 Colorimetric Drug Discovery Kit (Biomol): MMP activity reduction by dressings; format: biochemical; settings: compared to control samples with no MMP-9 inhibitor activity
T1 construct: purchased Biomol
Description: A National Diagnostics Hydrogen Peroxide Assay Kit was used to evaluate the antioxidant properties of foam pads and the formulated coated foam pads containing alpha-lipoic acid. Foam pads coated only with gelatin were used as controls. FIG. 2 is a graph showing the percentage of hydrogen peroxide reduction due to reaction with alpha-lipoic acid. An MMP-9 Colorimetric Drug Discovery Kit (Biomol) was used to evaluate the MMP inhibiting/inactivating ability of the formulated foam pads containing alpha-lipoic acid/gelatin (ALA) and gelatin alone (GF GEL). The controls were uncoated foam pads and known potent MMP inactivating drug, NNGH (C13H20N2O5S, available from Enzo® Life Sciences). […] FIG. 4 is a graph showing the release of alpha-lipoic acid from the coating on the foam pads. The coating delivers approximately 70% of the total alpha-lipoic acid within the first day, while the remaining alpha-lipoic acid is released during the next 2-3 days.
Coated polyurethane foam (GranuFoam®) scaffolds described above in Examples 1-2 were further assayed for their ability to reduce MMP activity as compared to non-coated collagen based scaffold such as the Biostep™ and Promogran™ products.

T1 sequence (P14780 107-444 limits assumed): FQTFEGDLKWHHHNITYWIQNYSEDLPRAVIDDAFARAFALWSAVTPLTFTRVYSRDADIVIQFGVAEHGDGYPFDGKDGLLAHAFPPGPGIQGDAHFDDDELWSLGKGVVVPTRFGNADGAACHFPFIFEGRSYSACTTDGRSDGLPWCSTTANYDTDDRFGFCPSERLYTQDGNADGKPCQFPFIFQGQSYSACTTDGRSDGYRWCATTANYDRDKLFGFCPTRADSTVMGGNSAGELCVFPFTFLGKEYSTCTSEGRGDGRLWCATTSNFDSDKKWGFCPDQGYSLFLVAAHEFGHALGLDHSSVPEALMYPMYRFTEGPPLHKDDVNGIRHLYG

time over which the remaining alpha-lipoic acid is released ([1]; after the first day) | share of the total alpha-lipoic acid delivered by the coating ([1]; within the first day) | Compound | % MMP-9 activity reduction ([2]; Table 1 experiment) | % MMP-9 activity reduction ([2]; Table 2 experiment)
2 to 3 days | approximately 70% | O=C(O)CCCCC1CCSS1 (stereo not drawn) [alpha-lipoic acid] | – | –
– | – | COc1ccc(S(=O)(=O)N(CC(=O)NO)CC(C)C)cc1 [NNGH] | 90.2% | 103.8%

Reference: US8597264B2, “Apparatuses, methods, and compositions for the treatment and prophylaxis of chronic wounds” (KCI Licensing, Inc., priority 2011, dated 2013)
